Earlier results on five compounds are cited in patent US11485730B2, “Compositions and methods for the treatment of fungal infections” (Cellix Bio Private Limited, priority 2016, dated 2022).

Read-outs that look alike come from different tables or passages of the source.

The subject of series [1] is oral streptococci and periodontopathogens.
The conditions of series [2]: among the long-chain fatty acids.
Series [3] deals with various oral pathogenic microorganisms.

Regarding `CCCCC/C=C\C/C=C\C/C=C\CCCCC(=O)O` [GLA, gamma linoleic acid], the bactericidal concentration in series [1] (n-6 fatty acids) was 25 µg/mL. Also, the antimicrobial activity entry in series [2] is given as “greatest antimicrobial activity”. The anti-microbial activity entry in series [3] (in vitro studies, various oral pathogenic microorganisms) was “significant anti-microbial activity”. In addition, the antimicrobial activities entry in series [3] (various oral microorganisms, including S. mutans, A. actinomycetemcomitans, C. albicans, P. gingivalis, F. nucleatum, S. gordonii) is listed as “antimicrobial activities”.

For the compound `CCCCC/C=C\C/C=C\C/C=C\C/C=C\CCCC(=O)O` [arachidonic acid], in series [2], the antimicrobial activity entry is “greatest antimicrobial activity”.

As a reminder, the MIC is the lowest concentration that inhibits growth of the organism. Take `CCCCC/C=C\C/C=C\CCCCCCCC(=O)O` [linoleic acid]: in the series on C. albicans, the “activity against C. albicans” value is recorded as under 40%. Besides, the minimum inhibitory concentration (MIC) with Candida Species was 450 µM; in the series on Candida Species (printed as corresponding to 0.45 μmoles/ml), 0.13 µg/mL. Besides, the bactericidal concentration in series [1] was 25 µg/mL. For the same compound, the antimicrobial activity entry in series [2] was “greatest antimicrobial activity”.

As to `CCCCCCCCCCCCCCCC(=O)O` [palmitic acid], in series [2], the antimicrobial activity result was “greatest antimicrobial activity”.

Consider `CCCCCC/C=C\CCCCCCCC(=O)O` [palmitoleic acid], for which the antimicrobial activity entry in series [2] is given as “greatest antimicrobial activity”.
